Data from patent publication US6586470B1, “Insecticidal composition” (Ecoval INC, priority 1998, dated 2003).

System: Northern corn root worm adults (diabrotica longiscornis)
Assay: Spray test on Northern corn root worm adults
Assay type: in vivo
Conditions: insects sprayed, inspected after 24 hours, amounts in grams/litre
Procedure: The insecticidal compositions being tested were formulated in aqueous solution. The amounts of the ingredients are specified in the examples, and unless stated otherwise, are expressed in grams/litre. The compositions were tested on Northern corn root worm adults (diabrotica longiscornis). The insects were treated and tested as indicated above.

## CC(=O)O [Sample 1, acetic acid]
  % Control: 0%
  Alive: 10
  Dead: 0

## O=C(O)CC(O)(CC(=O)O)C(=O)O [Sample 2, citric acid]
  % Control: 0%
  Alive: 10
  Dead: 0

## CC(=O)O [Sample 15, acetic acid]
  % Control: 0%
  Alive: 10
  Dead: 0

## CC(=O)O [Sample 18, acetic acid]
  % Control: 30%
  Alive: 7
  Dead: 3
Listed as acetic acid at 50 g/l
  % Control: partial control

## O=C(O)CC(O)(CC(=O)O)C(=O)O [Sample 19, citric acid]
  % Control: 20%
  Alive: 8
  Dead: 2
Listed as citric acid at 25 g/l
  % Control: partial control
